{
  "source": "ChEMBL document CHEMBL1201862",
  "about": "“PubChem BioAssay data set” (2004)",
  "key": {"[1]": {"molecular_target": "Protein Wnt-3a (Mus musculus, UniProt P27467)", "sequence (P27467 whole entry)": "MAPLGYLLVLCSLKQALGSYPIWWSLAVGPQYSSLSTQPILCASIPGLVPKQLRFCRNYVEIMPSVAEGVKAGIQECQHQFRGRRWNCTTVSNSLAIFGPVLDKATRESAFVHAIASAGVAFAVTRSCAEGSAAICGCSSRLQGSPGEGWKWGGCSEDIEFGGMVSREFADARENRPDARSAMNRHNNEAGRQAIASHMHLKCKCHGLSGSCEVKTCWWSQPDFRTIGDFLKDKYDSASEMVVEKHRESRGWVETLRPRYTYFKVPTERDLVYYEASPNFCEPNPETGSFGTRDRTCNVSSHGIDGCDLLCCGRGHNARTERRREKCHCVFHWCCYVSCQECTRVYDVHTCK", "test": "antagonism of Wnt3a pathway luciferase reporter – Wnt-LIGHT cells, luminescence, selectivity assay for Gli-SUFU antagonist project, dose response (AID 651570);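 further: Wnt-LIGHT reporter cells stimulated with conditioned medium from Wnt3a-producing cells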", "type": "functional", "conditions": "read-out: IC50_Mean"}, "[2]": {"molecular_target": "T1, Protein skinhead-1 (Caenorhabditis elegans, UniProt P34707)", "T1 sequence (P34707 whole entry)": "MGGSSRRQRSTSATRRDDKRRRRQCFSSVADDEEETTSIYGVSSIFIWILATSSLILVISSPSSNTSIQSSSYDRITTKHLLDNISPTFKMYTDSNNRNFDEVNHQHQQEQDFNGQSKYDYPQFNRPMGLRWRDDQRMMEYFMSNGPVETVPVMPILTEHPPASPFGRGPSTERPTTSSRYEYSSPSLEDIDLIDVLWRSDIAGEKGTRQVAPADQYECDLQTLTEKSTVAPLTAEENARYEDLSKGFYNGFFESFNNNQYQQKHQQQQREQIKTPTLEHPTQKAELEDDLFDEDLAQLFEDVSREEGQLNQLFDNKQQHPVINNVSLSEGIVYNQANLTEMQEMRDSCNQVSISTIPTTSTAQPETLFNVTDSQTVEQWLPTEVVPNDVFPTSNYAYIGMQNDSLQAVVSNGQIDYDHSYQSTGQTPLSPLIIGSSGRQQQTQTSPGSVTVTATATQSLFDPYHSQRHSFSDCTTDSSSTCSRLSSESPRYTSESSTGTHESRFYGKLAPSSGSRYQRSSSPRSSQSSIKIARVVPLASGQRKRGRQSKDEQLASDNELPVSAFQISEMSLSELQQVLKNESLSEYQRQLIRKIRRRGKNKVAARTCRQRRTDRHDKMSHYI", "type": "functional"}, "[3]": {"molecular_target": "Peroxisome proliferator-activated receptor gamma/Nuclear receptor coactivator 1 (Homo sapiens, UniProt P37231)", "sequence (P37231 whole entry)": "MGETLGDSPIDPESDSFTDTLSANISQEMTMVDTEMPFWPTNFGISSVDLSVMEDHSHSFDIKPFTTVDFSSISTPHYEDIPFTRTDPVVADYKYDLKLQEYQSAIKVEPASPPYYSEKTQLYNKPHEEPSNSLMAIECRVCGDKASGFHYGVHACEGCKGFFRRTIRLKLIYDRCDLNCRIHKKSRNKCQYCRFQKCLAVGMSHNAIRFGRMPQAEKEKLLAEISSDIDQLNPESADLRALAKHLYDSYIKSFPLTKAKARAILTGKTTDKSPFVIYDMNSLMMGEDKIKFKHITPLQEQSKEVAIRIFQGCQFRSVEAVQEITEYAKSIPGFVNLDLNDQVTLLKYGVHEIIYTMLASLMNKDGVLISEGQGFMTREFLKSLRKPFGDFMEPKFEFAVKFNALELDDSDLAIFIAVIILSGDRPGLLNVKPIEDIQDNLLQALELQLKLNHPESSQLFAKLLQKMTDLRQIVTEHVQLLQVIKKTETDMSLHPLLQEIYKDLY", "sequence (Q15788 whole entry, further chain)": "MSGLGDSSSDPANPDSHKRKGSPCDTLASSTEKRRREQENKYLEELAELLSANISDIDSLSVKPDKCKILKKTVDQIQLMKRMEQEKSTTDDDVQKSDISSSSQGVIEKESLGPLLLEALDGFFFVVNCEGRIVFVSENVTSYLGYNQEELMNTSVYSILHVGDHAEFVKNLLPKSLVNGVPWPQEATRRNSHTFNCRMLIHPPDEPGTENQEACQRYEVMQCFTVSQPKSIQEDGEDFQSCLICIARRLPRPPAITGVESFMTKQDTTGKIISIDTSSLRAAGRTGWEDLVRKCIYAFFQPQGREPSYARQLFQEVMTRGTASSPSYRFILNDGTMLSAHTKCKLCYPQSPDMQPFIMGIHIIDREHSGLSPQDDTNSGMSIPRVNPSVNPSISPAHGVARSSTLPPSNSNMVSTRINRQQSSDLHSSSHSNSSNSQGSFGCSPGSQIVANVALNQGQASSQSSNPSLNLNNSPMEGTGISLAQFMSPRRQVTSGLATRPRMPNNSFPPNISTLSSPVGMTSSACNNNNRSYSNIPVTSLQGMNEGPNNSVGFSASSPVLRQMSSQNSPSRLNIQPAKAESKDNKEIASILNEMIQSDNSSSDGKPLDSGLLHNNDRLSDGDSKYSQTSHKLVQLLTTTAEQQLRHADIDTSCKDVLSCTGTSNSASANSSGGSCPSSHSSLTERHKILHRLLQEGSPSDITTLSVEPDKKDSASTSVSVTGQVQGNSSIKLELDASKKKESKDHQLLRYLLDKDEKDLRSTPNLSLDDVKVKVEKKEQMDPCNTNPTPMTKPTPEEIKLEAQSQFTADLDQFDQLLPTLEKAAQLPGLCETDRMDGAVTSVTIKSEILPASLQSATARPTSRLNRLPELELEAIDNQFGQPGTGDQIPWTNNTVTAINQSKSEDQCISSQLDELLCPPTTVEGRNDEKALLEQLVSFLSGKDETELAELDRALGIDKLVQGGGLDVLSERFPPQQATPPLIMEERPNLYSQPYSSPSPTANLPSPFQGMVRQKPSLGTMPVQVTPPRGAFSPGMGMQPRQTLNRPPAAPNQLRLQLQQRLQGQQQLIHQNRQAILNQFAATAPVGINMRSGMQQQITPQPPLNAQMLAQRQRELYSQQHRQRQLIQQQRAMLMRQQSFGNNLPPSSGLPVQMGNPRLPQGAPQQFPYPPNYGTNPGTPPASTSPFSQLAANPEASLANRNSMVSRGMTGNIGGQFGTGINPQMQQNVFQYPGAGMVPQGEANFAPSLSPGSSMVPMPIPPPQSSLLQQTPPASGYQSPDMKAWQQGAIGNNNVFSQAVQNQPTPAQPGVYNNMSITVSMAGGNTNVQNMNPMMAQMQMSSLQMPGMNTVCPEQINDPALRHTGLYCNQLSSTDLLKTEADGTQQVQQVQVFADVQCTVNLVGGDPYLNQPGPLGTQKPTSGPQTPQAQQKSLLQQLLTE", "test": "(§1) TR-FRET dose response biochemical High Throughput Screening assay for agonists of the steroid receptor coactivator 1 (SRC-1) recruitment by the peroxisome proliferator-activated receptor gamma (PPAR gamma): non-selective agonists. [Related pubchem assays (depositor defined):AID1300, AID1808, AID504735, AID631]", "type": "protein assay"}, "[4]": {"molecular_target": "Peroxisome proliferator-activated receptor gamma/Nuclear receptor coactivator 3 (Homo sapiens, UniProt P37231)", "test": "as §1, with “3 (SRC-3)” for “1 (SRC-1)”, “assays: 1301 (Confirmation screen.), 1048 (Primary screen.)]” for “assays (depositor defined):AID1300, AID1808, AID504735, AID631]”", "type": "functional"}, "[5]": {"molecular_target": "Peroxisome proliferator-activated receptor gamma/Nuclear receptor coactivator 2 (Homo sapiens, UniProt P37231)", "sequence (P37231 whole entry)": "as the sequence (P37231 whole entry) above", "sequence (Q15596 whole entry, further chain)": "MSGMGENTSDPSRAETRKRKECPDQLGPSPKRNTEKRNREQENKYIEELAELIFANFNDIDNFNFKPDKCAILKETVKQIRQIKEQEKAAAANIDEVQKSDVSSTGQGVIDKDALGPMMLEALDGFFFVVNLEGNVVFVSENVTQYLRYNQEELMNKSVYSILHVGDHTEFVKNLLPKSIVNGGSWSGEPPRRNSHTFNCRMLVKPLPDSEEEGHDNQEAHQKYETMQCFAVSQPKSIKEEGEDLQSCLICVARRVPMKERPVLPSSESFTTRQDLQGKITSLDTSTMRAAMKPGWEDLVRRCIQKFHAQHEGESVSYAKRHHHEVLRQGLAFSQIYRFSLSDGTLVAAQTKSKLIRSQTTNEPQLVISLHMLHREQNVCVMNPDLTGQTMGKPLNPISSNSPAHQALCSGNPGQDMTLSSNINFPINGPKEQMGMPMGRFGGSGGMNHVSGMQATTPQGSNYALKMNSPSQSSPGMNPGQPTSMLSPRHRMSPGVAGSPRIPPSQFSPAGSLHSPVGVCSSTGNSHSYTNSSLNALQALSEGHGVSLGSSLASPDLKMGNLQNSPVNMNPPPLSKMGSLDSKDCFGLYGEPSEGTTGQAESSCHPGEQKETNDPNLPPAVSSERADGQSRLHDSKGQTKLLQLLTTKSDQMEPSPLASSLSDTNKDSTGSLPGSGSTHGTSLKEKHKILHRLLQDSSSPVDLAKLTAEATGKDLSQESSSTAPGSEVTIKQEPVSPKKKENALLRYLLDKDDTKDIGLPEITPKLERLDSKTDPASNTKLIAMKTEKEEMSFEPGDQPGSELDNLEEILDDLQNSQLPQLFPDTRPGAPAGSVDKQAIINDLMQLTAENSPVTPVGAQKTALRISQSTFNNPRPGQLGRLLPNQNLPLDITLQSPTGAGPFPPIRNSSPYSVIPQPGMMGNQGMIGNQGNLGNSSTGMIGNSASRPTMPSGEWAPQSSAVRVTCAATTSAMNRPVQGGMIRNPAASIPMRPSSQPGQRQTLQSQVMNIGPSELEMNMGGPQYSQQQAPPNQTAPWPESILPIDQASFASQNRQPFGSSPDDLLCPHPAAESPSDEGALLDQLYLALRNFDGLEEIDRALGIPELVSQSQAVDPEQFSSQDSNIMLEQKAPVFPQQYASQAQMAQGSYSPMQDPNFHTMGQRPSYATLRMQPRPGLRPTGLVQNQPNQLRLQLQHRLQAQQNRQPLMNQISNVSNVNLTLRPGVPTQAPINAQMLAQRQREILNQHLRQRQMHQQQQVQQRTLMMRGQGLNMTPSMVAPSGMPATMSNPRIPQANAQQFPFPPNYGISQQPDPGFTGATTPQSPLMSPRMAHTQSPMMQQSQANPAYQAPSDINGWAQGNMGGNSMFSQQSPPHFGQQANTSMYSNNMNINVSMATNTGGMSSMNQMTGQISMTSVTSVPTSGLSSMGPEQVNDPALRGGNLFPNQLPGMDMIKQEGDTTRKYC", "test": "TR-FRET dose response biochemical High Throughput Screening assay for agonists of the steroid receptor coactivator 2 (SRC-2) recruitment by the peroxisome proliferator-activated receptor gamma (PPAR gamma): non-selective agonists. [Related pubchem assays: 1297, 1032 ]", "type": "functional"}, "[6]": {"test": "Fluorescence-based cell-based high throughput dose response assay for inhibitors of the interaction of nucleotide-binding oligomerization domain containing 2 (NOD2) and the receptor-interacting serine-threonine kinase 2 (RIPK2).", "type": "functional", "conditions": "Homo sapiens"}, "[7]": {"tested_on": "Vero", "test": "cells", "type": "functional, cell-based", "conditions": "Chlorocebus sabaeus"}, "[8]": {"tested_on": "Vero", "test": "cells", "type": "functional", "conditions": "Chlorocebus sabaeus"}, "[9]": {"tested_on": "HEK293", "test": "EBV LMP1 TES2 canonical NF-kB signalling blockers – cell-based, HEK293, luciferase, cherry-pick, dose response (AID 588343)", "type": "functional", "conditions": "Homo sapiens"}, "[10]": {"molecular_target": "T2, High affinity choline transporter 1 (Homo sapiens, UniProt Q9GZV3)", "T2 sequence (Q9GZV3 whole entry)": "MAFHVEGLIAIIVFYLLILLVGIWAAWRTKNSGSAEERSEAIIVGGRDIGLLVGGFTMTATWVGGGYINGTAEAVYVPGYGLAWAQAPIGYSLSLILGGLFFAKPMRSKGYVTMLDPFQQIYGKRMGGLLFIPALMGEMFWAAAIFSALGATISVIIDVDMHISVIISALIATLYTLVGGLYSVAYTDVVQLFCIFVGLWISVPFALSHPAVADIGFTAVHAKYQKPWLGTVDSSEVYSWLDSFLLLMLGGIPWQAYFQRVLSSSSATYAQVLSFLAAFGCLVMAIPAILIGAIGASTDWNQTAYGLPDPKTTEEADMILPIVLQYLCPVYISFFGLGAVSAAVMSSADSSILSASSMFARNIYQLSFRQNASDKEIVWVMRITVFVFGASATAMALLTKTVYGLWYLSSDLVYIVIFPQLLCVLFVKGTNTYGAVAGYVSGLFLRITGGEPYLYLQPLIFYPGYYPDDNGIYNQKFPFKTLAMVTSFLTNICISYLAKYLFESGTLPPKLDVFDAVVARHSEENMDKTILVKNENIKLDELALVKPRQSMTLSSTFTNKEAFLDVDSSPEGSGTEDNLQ", "test": "human choline transporter blockers, potency – cell-based, 5-point CRC, membrane potential dye, dose response (AID 504840)", "type": "functional"}},
  "note": "Active and inactive are the calls of the source.",
  "data": [
    {"smiles": "CN1/C(=C\\C(=O)COC(=O)CNC(=O)c2ccc3ccccc3c2)C(C)(C)c2ccccc21", "values": [
      {"measurement": "IC50", "setting": "[1]", "result": "50 µM (inactive)"},
      {"measurement": "IC50", "setting": "[2]", "result": "> 100 µM (inactive)"}
    ]},
    {"smiles": "Cn1c(=O)cc(SCC(=O)NCc2cccnc2)c2ccccc21", "values": [
      {"measurement": "EC50", "setting": "[3]", "result": "> 79.4 µM (inactive)"},
      {"measurement": "EC50", "setting": "[4]", "result": "> 79.4 µM (not active)"},
      {"measurement": "EC50", "setting": "[5]", "result": "> 79.4 µM (not active)"}
    ]},
    {"smiles": "O=C(NCCN1C(=O)S/C(=C\\c2ccc(Cl)c([N+](=O)[O-])c2)C1=O)C1=COCCO1", "values": [
      {"measurement": "IC50", "setting": "[6]", "result": "1.62 µM (active)"}
    ]},
    {"smiles": "CC1CC(C)C(=O)C(C(CC2CC(=O)NC(=O)C2)OC(=O)CC(=O)c2ccccc2)C1", "note": "(stereo not given)", "values": [
      {"measurement": "IC50", "setting": "[7]", "result": "> 25 µM (active)"},
      {"measurement": "CC50", "setting": "[8]", "result": "9.24 µM (active)"},
      {"measurement": "AC50", "setting": "[9]", "result": "42.3 µM (active)"}
    ]},
    {"smiles": "O=C(NNC(=S)Nc1ccc(Cl)cc1)c1ccccc1OC(F)F", "values": [
      {"measurement": "IC50", "setting": "[10]", "result": "13.8 µM (active)"}
    ]},
    {"smiles": "Cc1ccc(C(=O)C[n+]2cc(Br)cc(Br)c2)cc1", "values": [
      {"measurement": "IC50", "setting": "[10]", "result": "11.4 µM (active)"}
    ]},
    {"smiles": "Cc1ccc(NC(=O)NCc2ccc3[nH]c(C)cc3c2)cc1", "values": [
      {"measurement": "IC50", "setting": "[7]", "result": "> 25 µM (active)"}
    ]},
    {"smiles": "CCC(C(=O)Nc1nnc(-c2ccco2)s1)c1ccccc1", "note": "(stereo not given)", "values": [
      {"measurement": "EC50", "setting": "[3]", "result": "> 79.4 µM (inactive)"},
      {"measurement": "EC50", "setting": "[4]", "result": "> 79.4 µM (not active)"},
      {"measurement": "EC50", "setting": "[5]", "result": "43.6 µM (not active)"}
    ]}
  ]
}
